Data as given in patent US9017672B2, “Hexon Tat-PTD modified adenovirus and uses thereof” (Immunicum Aktiebolag, priority 2012, dated 2015).

Experiments:
[1] = test system: cisplatin-insensitive SK-N-FI cells; assay: Relative cell viability by MTS assay, virus or drug; assay type: cell-based
Description: (§1) FIG. 25. Oncolytic adenovirus in combination with chemotherapy drugs. A cisplatin-insensitive clone of SK-N-FI and doxoru bicin-insensitive, etoposide-insensitive and vincristine-insensitive clones of SH-SY-5Y were established through repeated cycles of culture with increasing drug concentration. (A-D) Drug-sensitive (black lines) and drug-insensitive (grey dotted lines) neuroblastoma cells were then treated with viruses or drugs. The relative cell viability was analyzed after 4 days by MTS assay. (A) Oncolytic virus and cisplatin killing of SK-N-FI cells. (B) Oncolytic virus and etoposide killing of SH-SY-5Y cells. (C) Oncolytic virus and doxorubicin killing of SH-SY-5Y cells. (D) Oncolytic virus and vincristine killing of SH-SY-5Y cells. All data are shown as mean±SD from four independent experiments each with triplicate samples. (E) BON, NCI-H727 and QGP-1 cell lines were treated with PTD-based oncolytic adenovirus Ad5PTD(i/CgA-E1a-miR122T6) with different evg/cell in absence or presence of 10 μg/mL or 200 μg/mL cyclophosphamide. The relative cell viability was analyzed after 6 days by MTS assay.
(§2) A cisplatin-insensitive clone of the SK-N-FI neuroblastoma cell line and doxorubicin-, etoposide- and vincristine-insensitive clones of SH-SY-SY were established and treated with viruses at different evg/cell or drugs at various concentrations. The relative cell viability was analyzed by MTS assay. […] Ad5PTD(WT) also killed cisplatin-sensitive and insensitive SK-N-FI with the same efficacy (FIG. 25A).

[2] = test system: cisplatin-sensitive SK-N-FI cells; assay: as above; assay type: cell-based; settings: drug
Description: as §1, §2

human neutrophils = assay: Transwell migration assay of neutrophils against supernatants of virus-transduced BON cells; assay type: cell-based; settings: supernatants 48 hours post-transduction, MOI 10 FFU/cell
Description: (§3) BON cells were transduced with viruses Ad5PTDf35(D24-sNAP) or Ad5PTDf35(D24) at MOI 10 FFU/cell. Supernatants were harvested 48 hours post-transduction. (a) Transwell migration assay of human neutrophils isolated from 4 different individuals (2×10^5 cells/well) against harvested supernatants for 2 hours at 37° C. All samples were analyzed in triplicates and the data is represented as mean±SD of number of cells migrated. Supernatant from untransduced BON cells were used as control, (***p<0.001; n=12). (b) Granulocyte activation assay with supernatants from virus-transduced BON cells for 30 minutes at 37° C. Activation was measured in terms of ROI production, which was monitored using fluorescent dye DHR123. Supernatant from untransduced BON cells were used as control. At least 10000 events were recorded in the flow cytometer and MFI of DHR123 was recorded, (**p<0.01; *p<0.05; n=5). (c) Mice bearing BON tumors were treated with two intratumoral injections of Ad5PTDf35(D24-sNAP) or Ad5PTDf35(Δ24) (Indicated dotted arrows) and 2 mice per group were sacrificed, blood and tumor samples were drawn at different time points (indicated by solid arrows). Serum was separated from blood by centrifugation at 300 g for 10 min. Concentration of various cytokines determined by ELISA are represented in (d) TNF-α, (e) MIP2-α and (f) IL12/23 p40. […] All samples were analyzed in duplicates. […]

neutrophils = assay: Granulocyte activation assay, ROI production (DHR123); assay type: cell-based; settings: supernatants of transduced BON cells, 30 minutes
Description: as §3

[3] = test system: TNF-α, MIP2-α, IL12/23 p40; assay: Serum cytokines by ELISA after intratumoral virus injections; assay type: in vivo; settings: BON tumor-bearing mice, two intratumoral injections
Description: as §3

Molecule: N.N.[Cl][Pt][Cl] [cisplatin]
- IC50 ([1]; cisplatin-insensitive SK-N-FI, drug): 100 µM
- more drug needed to kill insensitive compared to sensitive cells ([1]; cisplatin-insensitive vs cisplatin-sensitive SK-N-FI): 12 fold
- IC50 [2]: 8 µM

B1: HP-NAP: Helicobacter pylori Neutrophil Activating Protein, here secreted from virus-transduced cells (protein)
chain: MKTFEILKHLQADAIVLFMKVHNFHWNVKGTDFFNVHKATEEIYEEFADMFDDLAERIVQLGHHPLVTLSEAIKLTRVKEETKTSFHSKDIFKEILEDYKYLEKEFKELSNTAEKEGDKVTVTYADDQLAKLQKSIWMLQAHLA
- neutrophil migration (human neutrophils): efficiently induce neutrophil migration
- neutrophil activation, release of reactive oxygen species (neutrophils): activated them to release reactive oxygen species
- induction of serum cytokines [3]: induced proinflammatory cytokines (TNF-α and MIP2-α) and Th1 type cytokines (IL12/23 p40)
